{
  "source": "paper PMC8711562",
  "about": "(Drug Design, Development and Therapy, 2021)",
  "origin": "cited, not measured here",
  "system": "gastric pH",
  "details": "beagles",
  "data": [
    {"smiles": "COc1ccc2[nH]c([S+]([O-])Cc3ncc(C)c(OC)c3C)nc2c1", "note": "(stereo not shown) [Omeprazole]", "values": [
      {"measurement": "gastric pH elevated to", "result": 6}
    ]}
  ]
}
